What all share (assay): NCI-60 cell line screen, 48 h
Assay [1] relates to HCT-116 colon.
For assay [2], the system named is SF-295 CNS.
Assay [3] relates to HCT-15 colon.
For assay [4], the system named is NCI-H226 lung.
Assay [5] deals with CAKI-1 renal.
Assay [6] deals with MDA-MB-231 breast.
Assay [7] relates to TK-10 renal.
Assay [8] relates to SF-268 CNS.
Assay [9] concerns SK-MEL-2 melanoma.
Assay [10] relates to MOLT-4 leukemia.
Assay [11] relates to U251 CNS.
Assay [12] concerns 786-0 renal.
Assay [13] has as its system OVCAR-5 ovarian.
Assay [14] concerns K-562 leukemia.
For assay [15], the system named is BT-549 breast.
Assay [16] deals with NCI-H522 lung.
Assay [17] deals with PC-3 prostate.
The subject of assay [18] is SNB-19 CNS.
In assay [19] the test system is MDA-MB-435.

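Dose response: 5 concentrations. Exposure: 48 h. Format: 96-well plates. Endpoint: linear interpolation; highest concentration if not reached. TGI: total growth inhibition.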 Bounds are passed on as bounds.

In the case of `CC1(C)OC(=O)C(Cc2ccccc2)(Cc2ccccc2)C(=O)O1`, the TGI in assay [1], in assay [2], in assay [3], in [4], in assay [5] and in assay [6] was over 100 µM each time. Also, the TGI in [7], in assay [8], in assay [9], in [10], in assay [11] and in [12] was over 100 µM each time. The TGI in assay [13], in [14], in assay [15], in assay [16] and in assay [17] was over 100 µM in each case.

Regarding `O=C1/C(=C/c2ccc(Cl)cc2)CSC/C1=C\c1ccc(Cl)cc1`, the TGI was 3.69 µM in assay [1]; 4.21 µM in assay [2]; over 100 µM in assay [3]; 5.59 µM in assay [4]; 11.8 µM in [5]; 27.2 µM in [6]. Moreover, the TGI was 13 µM in assay [7]; 22 µM in assay [8]; 37.8 µM in [9]; 9 µM in assay [10]; 3.04 µM in assay [11]; 9.73 µM in assay [12]. The TGI in assay [13] was 5.57 µM; in assay [14], 10.1 µM; in assay [15], 4.99 µM; in assay [18] it was 17 µM; in [16] it was 15.2 µM; in assay [17], 16 µM.

Regarding `O=C(C/C=C/c1ccccc1)c1ccccc1`, the TGI is 33.1 µM in assay [1]; over 100 µM in assay [2]; 37 µM in assay [3]; 66.6 µM in [4]; 31.7 µM in assay [5]; 65.6 µM in [7]. Further, the TGI in assay [8] was 56.8 µM; in assay [10] it was 61.6 µM; in [11], 29.9 µM; in assay [19], 42.5 µM; in assay [12], 48.8 µM; in [13], over 100 µM. For the same compound, in assay [16], the TGI stood at 34.1 µM.

For the compound `CC(O)[C@@]1(c2ccccc2)CC2(CCN(C)CC2)O[C@H]1C` (some centres undefined), the TGI in assay [2], in [3], in [4], in assay [5], in assay [6] and in [7] was over 100 µM throughout. Besides, the TGI in [8], in assay [9], in assay [10], in assay [11], in assay [19] and in assay [12] was over 100 µM throughout. Besides, the TGI in assay [13], in assay [14], in [18], in assay [16] and in assay [17] was over 100 µM throughout.

For the compound `Cc1csc(NNC(=O)Nc2ccccc2)n1`, the TGI in assay [1], in assay [2], in assay [3], in assay [4], in [5] and in assay [6] was over 100 µM in each case. In addition, the TGI in assay [8], in [9], in [11], in [19], in assay [12] and in assay [13] was over 100 µM throughout. For the same compound, the TGI in assay [14], in [18], in assay [16] and in assay [17] was over 100 µM each time.

`N#Cc1ccc(C2NN=CC23C(=O)c2ccccc2OC3c2ccccc2)cc1` (centres undefined): the TGI in assay [1] is 69 µM; in assay [2], over 100 µM; in assay [3], over 100 µM; in assay [4], over 100 µM; in assay [5], over 100 µM; in [6] it was over 100 µM. Also, the TGI was 96.3 µM in assay [7]; over 100 µM in assay [8]; over 100 µM in assay [9]; over 100 µM in assay [10]; 55.7 µM in assay [11]; over 100 µM in [19]. The TGI in assay [12] is over 100 µM; in [13], over 100 µM; in assay [14] it was over 100 µM; in assay [18], over 100 µM; in assay [16] it was 54.4 µM; in assay [17] it was over 100 µM.

For `N#Cc1c(O)c2ccccc2[nH]c1=O`, the TGI in assay [1], in assay [2], in assay [3], in [4], in [5] and in assay [6] was over 100 µM throughout. In addition, the TGI in [7], in [9], in assay [10], in [11], in [19] and in [12] was over 100 µM in each case. The TGI in assay [13], in [14], in assay [18], in [16] and in [17] was over 100 µM each time.

For `CC1=CCC2CC1NC(=O)CCOCCC(=O)NC2(C)C` (centres undefined), the TGI in assay [1], in assay [2], in assay [3], in assay [4], in assay [5] and in [6] was over 100 µM each time. Also, the TGI in assay [7], in assay [8], in assay [9], in assay [10], in assay [11] and in assay [19] was over 100 µM each time. In addition, the TGI in assay [12], in assay [13], in assay [14], in assay [18], in assay [16] and in [17] was over 100 µM each time.

For the origin of these results see PubChem BioAssay (NCI).
